Test results from patent US6737383B1, “Herbicidal oxadiazolidines” (priority 1999, dated 2004).

Tests used:
[1] = system: soybean; assay: Test B pre/postemergence soybean; format: in vivo, Glycine max; settings: Preemergence, Rate 62 g/ha; scale of 0 to 10 where 0 is no effect and 10 is complete control
Description: (§1) Seeds of bedstraw (Galium aparine), blackgrass (Alopecurus myosuroides), surinam grass (Brachiaria decumbens), cocklebur (Xanthium strumarium), corn (Zea mays), crabgrass (Digitaria sanguinalis), giant foxtail (Setaria faberii), morningglory (Ipomoea hederacea), pigweed (Amaranthus retroflexus), rape (Brassica napus), soybean (Glycine max), sugar beet (Beta vulgaris), velvetleaf (Abutilon theophrasti), wheat (Triticum aestivum), wild oat (Avena fatua) and purple nutsedge (Cyperus rotundus) tubers were planted and treated preemnergence with test chemicals formulated in a non-phytotoxic solvent mixture which included a surfactant.
(§2) At the same time, these crop and weed species were also treated with postemergence applications of test chemicals formulated in the same manner. Plants ranged in height from 2 to 18 cm (1- to 4-leaf stage) for postemergence treatments. Plant species in the flood test consisted of rice (Oryza sativa), smallflower flatsedge (Cyperus difformis), duck salad (Heteranthera limosa) and bamyardgrass (Echinochloa crus-galli) grown to the 2-leaf stage for testing. Treated plants and controls were maintained in a greenhouse for twelve to sixteen days, after which all species were compared to controls and visually evaluated. Plant response ratings, summarized in Table B, are based on a scale of 0 to 10 where 0 is no effect and 10 is complete control. A dash (−) response means no test result.

[2] = system: sugar beet; assay: Test B pre/postemergence sugar beet; format: in vivo, Beta vulgaris; settings: Preemergence, Rate 62 g/ha; scale of 0 to 10 where 0 is no effect and 10 is complete control
Description: as §1, §2

[3] = system: rape; assay: Test B pre/postemergence rape; format: in vivo, Brassica napus; settings: Preemergence, Rate 62 g/ha; scale of 0 to 10 where 0 is no effect and 10 is complete control
Description: as §1, §2

[4] = system: blackgrass; assay: Test B pre/postemergence blackgrass; format: in vivo, Alopecurus myosuroides; settings: Preemergence
Description: as §1, §2

[5] = system: giant foxtail; assay: Test B pre/postemergence giant foxtail; format: in vivo, Setaria faberii; settings: Preemergence, Rate 62 g/ha; scale of 0 to 10 where 0 is no effect and 10 is complete control
Description: as §1, §2

[6] = system: pigweed; assay: Test B pre/postemergence pigweed; format: in vivo, Amaranthus retroflexus; settings: Preemergence, Rate 62 g/ha; scale of 0 to 10 where 0 is no effect and 10 is complete control
Description: as §1, §2

[7] = system: crabgrass; assay: Test B pre/postemergence crabgrass; format: in vivo, Digitaria sanguinalis; settings: Preemergence
Description: as §1, §2

[8] = system: surinam grass; assay: Test B pre/postemergence surinam grass; format: in vivo, Brachiaria decumbens; settings: Preemergence
Description: as §1, §2

[9] = system: morningglory; assay: Test B pre/postemergence morningglory; format: in vivo, Ipomoea hederacea; settings: Preemergence, Rate 62 g/ha; scale of 0 to 10 where 0 is no effect and 10 is complete control
Description: as §1, §2

[10] = system: corn; assay: Test B pre/postemergence corn; format: in vivo, Zea mays; settings: Preemergence
Description: as §1, §2

[11] = system: bedstraw; assay: Test B pre/postemergence bedstraw; format: in vivo, Galium aparine; settings: Preemergence
Description: as §1, §2

[12] = system: velvetleaf; assay: Test B pre/postemergence velvetleaf; format: in vivo, Abutilon theophrasti; settings: Preemergence, Rate 62 g/ha; scale of 0 to 10 where 0 is no effect and 10 is complete control
Description: as §1, §2

[13] = system: wheat; assay: Test B pre/postemergence wheat; format: in vivo, Triticum aestivum; settings: Preemergence, Rate 62 g/ha; scale of 0 to 10 where 0 is no effect and 10 is complete control
Description: as §1, §2

[14] = system: cocklebur; assay: Test B pre/postemergence cocklebur; format: in vivo, Xanthium strumarium; settings: Preemergence
Description: as §1, §2

[15] = system: wild oat; assay: Test B pre/postemergence wild oat; format: in vivo, Avena fatua; settings: Preemergence, Rate 62 g/ha; scale of 0 to 10 where 0 is no effect and 10 is complete control
Description: as §1, §2

[16] = Rate 62 g/ha, scale of 0 to 10 where 0 is no effect and 10 is complete control
[17] = Rate 250 g/ha, scale 0 to 10 (0 no effect, 10 complete control)
[18] = Rate 500 g/ha, scale of 0 to 10 where 0 is no effect and 10 is complete control

CC(C)N(C(=O)n1oc(=O)n(C(C)C2CC2)c1=O)c1ccc(Cl)cc1 (stereo not shown) [Compound 700]
Soybean plant response rating [1]: 0
Sugarbeets plant response rating [2]: 0
Rape plant response rating [3]: 0
Blackgrass plant response rating [4, 16]: 4
Plant response rating, Blackgrass [4, 17]: 8
Plant response rating, Blackgrass [4, 18]: 10
Giant foxtail plant response rating [5]: 10
Redroot pigweed plant response rating [6]: 0
Crabgrass plant response rating [7, 16]: 10
Plant response rating, Crabgrass [7, 17]: 10
B. signalgrass plant response rating [8, 16]: 4
Plant response rating, B. signalgrass [8, 17]: 8
Plant response rating, B. signalgrass [8, 18]: 10
Morningglory plant response rating [9]: 0
Corn plant response rating [10, 16]: 0
Plant response rating, Corn [10, 17]: 3
Bedstraw plant response rating [11, 16]: 0
Plant response rating, Bedstraw [11, 17]: 0
Plant response rating, Bedstraw [11, 18]: 8
Velvetleaf plant response rating [12]: 0
Wheat plant response rating [13]: 0
Cocklebur plant response rating [14, 16]: 0
Plant response rating, Cocklebur [14, 17]: 0
Plant response rating, Cocklebur [14, 18]: 0
Wild oats plant response rating [15]: 4
